Source: patent publication US20250147039A1, “Compounds for complexation of rare earth elements and/or s-, p-, d- block metals, their coordination compounds, peptide conjugates, method of their preparation and use thereof” (USTAV ORGANICKE CHEMIE A BIOCHEMIE AV CR V.V.I., priority 2021, published 2025)

What was measured:
Assay type in all cases: physicochemical
[1] = Dissociation of chelates in aq. 6.0M HCl at 80° C. (acid decomplexation kinetic inertness) (Chart 17)
[2] = Dissociation of chelates in aq. 0.1M HCl at 80° C. (acid decomplexation kinetic inertness) (Chart 19)
[3] = Dissociation of chelates in aq. 0.1M HCl at RT (acid decomplexation kinetic inertness) (Chart 20)
[4] = Dissociation of chelates in aq. 1.0M HCl at 80° C. (acid decomplexation kinetic inertness) (Chart 18)

Row | SMILES | fraction of intact chelate ([1]; 1 month) [%] | fraction of intact chelate ([1]; 1 week) [%] | fraction of intact chelate ([1]; 1 hour) [%] | fraction of intact chelate ([1]; 1 day) [%] | fraction of intact chelate ([2]; 1 month) [%] | fraction of intact chelate ([2]; 1 week) [%] | fraction of intact chelate ([2]; 1 hour) [%] | fraction of intact chelate ([2]; 1 day) [%] | fraction of intact chelate ([3]; 1 month) [%] | fraction of intact chelate ([3]; 1 week) [%] | fraction of intact chelate ([3]; 1 hour) [%] | fraction of intact chelate ([3]; 1 day) [%] | fraction of intact chelate ([4]; 1 month) [%] | fraction of intact chelate ([4]; 1 week) [%] | fraction of intact chelate ([4]; 1 hour) [%] | fraction of intact chelate ([4]; 1 day) [%]
1 | O=C1C[N@@]2CC[N@]3CC[N@@](CC[N@](CC2)Cc2cccc(n2)-c2cn(nn2)Cc2cc(-c4ccccc4)cc(n2)C3)CC(=O)[O][Gd][O]1 [TD875] | 0 | 0 | 0 | 0 | 0 | 0 | 0 | 0 | 0 | 6 | 98 | 58 | 0 | 0 | 0 | 0
2 | O=C([O-])CN1CCN2CCN(CC(=O)[O-])CCN(CC1)Cc1cccc(n1)-c1cnnn1Cc1cc(-c3ccccc3)cc(n1)C2.[Pb+2] [TD876] | 0 | 0 | 0 | 0 | 0 | 0 | 0 | 0 | 0 | 0 | 6 | 0 | 0 | 0 | 0 | 0
3 | O=C1C[N@@]2CC[N@]3CC[N@@](CC[N@](CC2)Cc2cccc(n2)-c2cnnn2Cc2cc(-c4ccccc4)cc(n2)C3)CC(=O)[O][Cd][O]1 [TD880] | 0 | 0 | 43 | 0 | 100 | 100 | 100 | 100 | 100 | 100 | 100 | 100 | 63 | 90 | 100 | 99
4 | O=C1C[N@@]2CC[N@]3CC[N@@](CC[N@](CC2)Cc2cccc(n2)-c2cn(nn2)Cc2cc(-c4ccccc4)cc(n2)C3)CC(=O)[O][Cd][O]1 [TD900] | 0 | 0 | 0 | 0 | 0 | 0 | 56 | 0 | 63 | 91 | 100 | 99 | 0 | 0 | 0 | 0

Continued, values first:

Row | fraction of intact chelate ([1]; 1 month) [%] | fraction of intact chelate ([1]; 1 week) [%] | fraction of intact chelate ([1]; 1 hour) [%] | fraction of intact chelate ([1]; 1 day) [%] | fraction of intact chelate ([2]; 1 month) [%] | fraction of intact chelate ([2]; 1 week) [%] | fraction of intact chelate ([2]; 1 hour) [%] | fraction of intact chelate ([2]; 1 day) [%] | fraction of intact chelate ([3]; 1 month) [%] | fraction of intact chelate ([3]; 1 week) [%] | fraction of intact chelate ([3]; 1 hour) [%] | fraction of intact chelate ([3]; 1 day) [%] | fraction of intact chelate ([4]; 1 month) [%] | fraction of intact chelate ([4]; 1 week) [%] | fraction of intact chelate ([4]; 1 hour) [%] | fraction of intact chelate ([4]; 1 day) [%] | SMILES
5 | 0 | 0 | 0 | 0 | 0 | 0 | 46 | 0 | 5 | 54 | 100 | 93 | 0 | 0 | 0 | 0 | O=C([O-])CN1CCN2CCN(CC(=O)[O-])CCN(CC1)Cc1cccc(n1)-c1cnnn1Cc1cc(-c3ccccc3)cc(n1)C2.[Zn+2] [TD890]
6 | 0 | 0 | 77 | 0 | 60 | 90 | 100 | 98 | 100 | 100 | 100 | 100 | 0 | 21 | 100 | 82 | O=P1(c2ccccc2)C[N@@]2CC[N@]3CC[N@@](CC[N@](CC2)Cc2cccc(n2)-c2cnnn2Cc2cccc(n2)C3)CP(=O)(c2ccccc2)[O][Gd][O]1 (stereo partly drawn) [TD925]
